6 molecules from patent US20260347337A1, “MICROBIOCIDAL PYRAZOLE DERIVATIVES” (priority 2022, published 2026) can be followed below.

The subject of experiment [1] is Alternaria solani. Description: Alternaria solani/tomato/leaf disc (early blight). The experiment is classed as in vivo. To be noted: 200 ppm; tomato leaf disks cv. Baby; inoculated 2 days after application; assessed 5-7 days after application. The procedure: Example B1: Alternaria solani/Tomato/Leaf Disc (Early Blight)
Tomato leaf disks cv. Baby are placed on agar in multiwell plates (24-well format) and sprayed with the formulated test compound diluted in water. The leaf disks are inoculated with a spore suspension of the fungus 2 days after application. The inoculated leaf disks are incubated at 23° C./21° C. (day/night) and 80% rh under a light regime of 12/12 h (light/dark) in a climate cabinet and the activity of a compound is assessed as percent disease control compared to untreated when an appropriate level of disease damage appears on untreated check disk leaf disks (5-7 days after application).

The subject of experiment [2] is Botryotinia fuckeliana (Botrytis cinerea). Description: Botryotinia fuckeliana (Botrytis cinerea)/liquid culture (gray mould), inhibition of growth. The experiment is classed as cell-based. To be noted: liquid culture, Vogels broth, 24° C., 3-4 days after application, read-out: control of Botryotinia fuckeliana (inhibition of growth vs untreated). The procedure: Example B2: Botryotinia fuckeliana (Botrytis cinerea)/Liquid Culture (Gray Mould)
Conidia of the fungus from cryogenic storage are directly mixed into nutrient broth (Vogels broth). After placing a (DMSO) solution of test compound into a microtiter plate (96-well format), the nutrient broth containing the fungal spores is added. The test plates are incubated at 24° C. and the inhibition of growth is determined photometrically 3-4 days after application.

The subject of experiment [3] is Glomerella lagenarium (Colletotrichum lagenarium). Description: Glomerella lagenarium (Colletotrichum lagenarium)/liquid culture (anthracnose), inhibition of growth. To be noted: Colletotrichum orbiculare, liquid culture, PDB, 24° C., 3-4 days after application, read-out: control of Glomerella lagenarium (inhibition of growth vs untreated). The class given is cell-based. Here is the method: Example B3: Glomerella lagenarium (Colletotrichum lagenarium)/Liquid Culture (Anthracnose)
Conidia of the fungus from cryogenic storage are directly mixed into nutrient broth (PDB potato dextrose broth). After placing a (DMSO) solution of test compound into a microtiter plate (96-well format), the nutrient broth containing the fungal spores is added. The test plates are incubated at 24° C. and the inhibition of growth is measured photometrically 3-4 days after application.

Experiment [4] relates to Blumeria graminis f. sp. tritici (Erysiphe graminis f. sp. tritici). Description: Blumeria graminis f. sp. tritici/wheat/leaf disc preventative (powdery mildew on wheat). The following applies: 200 ppm, wheat leaf segments cv. Kanzler, inoculated 1 day after application, assessed 6-8 days after application. The experiment is classed as in vivo. The procedure: Example B4: Blumeria graminis f. Sp. Tritici (Erysiphe graminis f. Sp. Tritici)/Wheat/Leaf Disc Preventative (Powdery Mildew on Wheat)
Wheat leaf segments cv. Kanzler are placed on agar in a multiwell plate (24-well format) and sprayed with the formulated test compound diluted in water. The leaf disks are inoculated by shaking powdery mildew infected plants above the test plates 1 day after application. The inoculated leaf disks are incubated at 20° C. and 60% rh under a light regime of 24 h darkness followed by 12 h light/12 h darkness in a climate chamber and the activity of a compound is assessed as percent disease control compared to untreated when an appropriate level of disease damage appears on untreated check leaf segments (6-8 days after application).

Experiment [5] relates to Fusarium culmorum. Description: microbe, parasite or virus in culture. The experiment is classed as cell-based. The following applies: read-out: control of Fusarium culmorum (inhibition of growth vs untreated).
Experiment [6] deals with Phaeosphaeria nodorum (Septoria nodorum). Description: Phaeosphaeria nodorum (Septoria nodorum)/wheat/leaf disc preventative (glume blotch). To be noted: 200 ppm, wheat leaf segments cv. Kanzler, inoculated 2 days after application, assessed 5-7 days after application. The experiment is classed as in vivo. The procedure: Example B7: Phaeosphaeria nodorum (Septoria nodorum)/Wheat/Leaf Disc Preventative (Glume Blotch)
Wheat leaf segments cv. Kanzler are placed on agar in a multiwell plate (24-well format) and sprayed with the formulated test compound diluted in water. The leaf disks are inoculated with a spore suspension of the fungus 2 days after application. The inoculated test leaf disks are incubated at 20° C. and 75% rh under a light regime of 12 h light/12 h darkness in a climate cabinet and the activity of a compound is assessed as percent disease control compared to untreated when an appropriate level of disease damage appears in untreated check leaf disks (5-7 days after application).

The subject of experiment [7] is Monographella nivalis (Microdochium nivale). Description: Monographella nivalis (Microdochium nivale)/liquid culture (foot rot cereals), inhibition of growth. The experiment is classed as cell-based. The following applies: liquid culture, PDB, 24° C., 4-5 days after application, read-out: control of Monographella nivalis (inhibition of growth vs untreated). The procedure: Example B8: Monographella nivalis (Microdochium nivale)/Liquid Culture (Foot Rot Cereals)
(§1) Conidia of the fungus from cryogenic storage are directly mixed into nutrient broth (PDB potato dextrose broth). After placing a (DMSO) solution of test compound into a microtiter plate (96-well format), the nutrient broth containing the fungal spores is added. The test plates are incubated at 24° C. and the inhibition of growth is determined photometrically 4-5 days after application.

For experiment [8], the system named is Mycosphaerella arachidis (Cercospora arachidicola). Description: Mycosphaerella arachidis (Cercospora arachidicola)/liquid culture (early leaf spot), inhibition of growth. The class given is cell-based. To be noted: liquid culture, PDB, 24° C., 4-5 days after application, read-out: control of Mycosphaerella arachidis (inhibition of growth vs untreated). Here is the method: Example B9: Mycosphaerella arachidis (Cercospora arachidicola)/Liquid Culture (Early Leaf Spot)
as §1

Experiment [9] relates to Pyrenophora teres. Description: Pyrenophora teres/barley/leaf disc preventative (net blotch). To be noted: 200 ppm, barley leaf segments cv. Hasso, inoculated 2 days after application, assessed 5-7 days after application. The experiment is classed as in vivo. Here is the method:
Example B10: Pyrenophora teres/Barley/Leaf Disc Preventative (Net Blotch)
Barley leaf segments cv. Hasso are placed on agar in a multiwell plate (24-well format) and sprayed with the formulated test compound diluted in water. The leaf segments are inoculated with a spore suspension of the fungus 2 days after application. The inoculated leaf segments are incubated at 20° C. and 65% rh under a light regime of 12 h light/12 h darkness in a climate cabinet and the activity of a compound is assessed as disease control compared to untreated when an appropriate level of disease damage appears in untreated check leaf segments (5-7 days after application).

The subject of experiment [10] is Mycosphaerella graminicola (Septoria tritici). Description: Mycosphaerella graminicola (Septoria tritici)/liquid culture (Septoria blotch), inhibition of growth. The class given is cell-based. To be noted: Zymoseptoria tritici, liquid culture, PDB, 24° C., 4-5 days after application, read-out: control of Mycosphaerella graminicola (inhibition of growth vs untreated). Here is the method: Example B12: Mycosphaerella graminicola (Septoria tritici)/Liquid Culture (Septoria Blotch)
as §1

The test system of experiment [11] is Plasmopara viticola. The experiment is classed as in vivo. The following applies: 200 ppm; grape vine leaf disks; preventative, inoculated 1 day after application; assessed 6-8 days after application.
The subject of experiment [12] is Sclerotinia sclerotiorum. Description: Sclerotinia sclerotiorum/liquid culture (cottony rot), inhibition of growth. The class given is cell-based. The following applies: liquid culture (mycelia fragments), PDB, 24° C., 3-4 days after application, read-out: control of Sclerotinia sclerotiorum (inhibition of growth vs untreated). Here is the method: Example B11: Sclerotinia sclerotiorum/Liquid Culture (Cottony Rot)
Mycelia fragments of a newly grown liquid culture of the fungus are directly mixed into nutrient broth (PDB potato dextrose broth). After placing a (DMSO) solution of test compound into a microtiter plate (96-well format) the nutrient broth containing the fungal material is added. The test plates are incubated at 24° C. and the inhibition of growth is determined photometrically 3-4 days after application.

The test system of experiment [13] is Fusarium culmorum. The class given is in vivo. The following applies: 200 ppm; wheat spikelets cv. Monsun; preventative, inoculated 1 day after application; assessed 6-8 days after application.

Some results are limits rather than exact numbers.

In the case of `Cn1cc(C(C)(CNC(=O)c2cn(-c3ccc(F)cc3F)nn2)c2cccc(Cl)n2)cn1` (centres unmarked) [Compound P-1, N-[2-(6-chloro-2-pyridyl)-2-(1-methylpyrazol-4-yl)propyl]-1-(2,4-difluorophenyl)triazole-4-carboxamide], the “control of Alternaria solani (percent disease control compared to untreated)” value in experiment [1] was “at least 80%”. In addition, the inhibition of growth at 20 ppm in experiment [2], in experiment [3], in [5], in experiment [7], in [8] and in experiment [10] was at least 80% each time. Further, the “control of Blumeria graminis f. sp. tritici (percent disease control compared to untreated)” value in experiment [4] is given as “at least 80%”. Moreover, the “control of Phaeosphaeria nodorum (percent disease control compared to untreated)” value in experiment [6] is listed as “at least 80%”. The “control of Pyrenophora teres (disease control compared to untreated)” value in experiment [9] is reported as “at least 80%”. The “control of Plasmopara viticola (percent disease control compared to untreated)” value in experiment [11] was “at least 80%”.

With `Cn1cc(C(C)(CNC(=O)c2cnn(-c3ccc(F)cc3F)n2)c2cccc(Cl)n2)cn1` (centres unmarked) [Compound P-3, N-[2-(6-chloro-2-pyridyl)-2-(1-methylpyrazol-4-yl)propyl]-2-(2,4-difluorophenyl)triazole-4-carboxamide], the “control of Alternaria solani (percent disease control compared to untreated)” value in [1] was “at least 80%”. Also, the “control of Pyrenophora teres (disease control compared to untreated)” value in experiment [9] is recorded as “at least 80%”.

As for `Cn1cc(C(C)(CNC(=O)c2nnn(-c3ccc(F)cc3F)n2)c2cccc(C#N)n2)cn1` (centres unmarked) [Compound P-5, N-[2-(6-cyano-2-pyridyl)-2-(1-methylpyrazol-4-yl)propyl]-2-(2,4-difluorophenyl)tetrazole-5-carboxamide], in experiment [1], the “control of Alternaria solani (percent disease control compared to untreated)” value was “at least 80%”. For the same molecule, the inhibition of growth at 20 ppm in experiment [2], in experiment [3], in experiment [7], in experiment [8], in experiment [12] and in [10] was at least 80% in each case. Further, the “control of Blumeria graminis f. sp. tritici (percent disease control compared to untreated)” value in experiment [4] is “at least 80%”. The “control of Phaeosphaeria nodorum (percent disease control compared to untreated)” value in experiment [6] was “at least 80%”. Further, the “control of Pyrenophora teres (disease control compared to untreated)” value in experiment [9] is listed as “at least 80%”.

With `Cn1cc(C(C)(CNC(=O)c2nnn(-c3ccc(F)cc3F)n2)c2cccc(Cl)n2)cn1` (centres unmarked) [Compound P-6, N-[2-(6-chloro-2-pyridyl)-2-(1-methylpyrazol-4-yl)propyl]-2-(2,4-difluorophenyl)tetrazole-5-carboxamide], the “control of Alternaria solani (percent disease control compared to untreated)” value in experiment [1] is on record as “at least 80%”. For the same molecule, the inhibition of growth at 20 ppm in experiment [2], in [3], in [5], in experiment [7], in experiment [8] and in experiment [12] was at least 80% each time. In experiment [10], the inhibition of growth – broadly, the percentage by which the read-out fell short of the control – at 20 ppm is at least 80%. The “control of Blumeria graminis f. sp. tritici (percent disease control compared to untreated)” value in experiment [4] is given as “at least 80%”. In addition, in [13], the “control of Fusarium culmorum (percent disease control compared to untreated)” value is given as “at least 80%”. Also, in experiment [6], the “control of Phaeosphaeria nodorum (percent disease control compared to untreated)” value is listed as “at least 80%”. For the same molecule, the “control of Pyrenophora teres (disease control compared to untreated)” value in [9] was “at least 80%”.

As for `Cn1cc(C(C)(CNC(=O)c2cn(-c3ccc(F)cc3F)nn2)c2cccc(Br)n2)cn1` (centres unmarked) [Compound P-8, N-[2-(6-bromo-2-pyridyl)-2-(1-methylpyrazol-4-yl)propyl]-1-(2,4-difluorophenyl)triazole-4-carboxamide], in experiment [1], the “control of Alternaria solani (percent disease control compared to untreated)” value is “at least 80%”. The inhibition of growth at 20 ppm in experiment [2], in experiment [3], in [5], in experiment [7], in experiment [8] and in experiment [10] was at least 80% in each case. Moreover, the “control of Blumeria graminis f. sp. tritici (percent disease control compared to untreated)” value in experiment [4] was “at least 80%”. In [6], the “control of Phaeosphaeria nodorum (percent disease control compared to untreated)” value is “at least 80%”. Also, the “control of Pyrenophora teres (disease control compared to untreated)” value in experiment [9] is “at least 80%”.

With `Cn1cc(C(C)(CNC(=O)c2cn(-c3ccc(F)cc3F)nn2)c2cccc(C#N)n2)cn1` (centres unmarked) [Compound P-9, N-[2-(6-cyano-2-pyridyl)-2-(1-methylpyrazol-4-yl)propyl]-1-(2,4-difluorophenyl)triazole-4-carboxamide], the “control of Blumeria graminis f. sp. tritici (percent disease control compared to untreated)” value in [4] is listed as “at least 80%”. Moreover, the “control of Phaeosphaeria nodorum (percent disease control compared to untreated)” value in experiment [6] is recorded as “at least 80%”. Moreover, the inhibition of growth at 20 ppm in experiment [7] and in experiment [10] was at least 80% in each case. Further, the “control of Pyrenophora teres (disease control compared to untreated)” value in experiment [9] is “at least 80%”.
